Test results reported in ChEMBL document CHEMBL1201862, “PubChem BioAssay data set” (2004).
Activity calls are given as the source filed them.

Experiments:
[1] = biological target: Voltage-gated N-type calcium channel alpha-1B subunit/Amyloid beta A4 precursor protein-binding family A member 1 (Homo sapiens, UniProt Q00975+Q02410); assay type: protein assay
[2] = biological target: T1, High affinity choline transporter 1 (Homo sapiens, UniProt Q9GZV3); assay: CHT inhibitors, dose response, cell-based, 5-point CRC, membrane potential dye (AID 504840); assay type: functional
T1 sequence (Q9GZV3 whole entry): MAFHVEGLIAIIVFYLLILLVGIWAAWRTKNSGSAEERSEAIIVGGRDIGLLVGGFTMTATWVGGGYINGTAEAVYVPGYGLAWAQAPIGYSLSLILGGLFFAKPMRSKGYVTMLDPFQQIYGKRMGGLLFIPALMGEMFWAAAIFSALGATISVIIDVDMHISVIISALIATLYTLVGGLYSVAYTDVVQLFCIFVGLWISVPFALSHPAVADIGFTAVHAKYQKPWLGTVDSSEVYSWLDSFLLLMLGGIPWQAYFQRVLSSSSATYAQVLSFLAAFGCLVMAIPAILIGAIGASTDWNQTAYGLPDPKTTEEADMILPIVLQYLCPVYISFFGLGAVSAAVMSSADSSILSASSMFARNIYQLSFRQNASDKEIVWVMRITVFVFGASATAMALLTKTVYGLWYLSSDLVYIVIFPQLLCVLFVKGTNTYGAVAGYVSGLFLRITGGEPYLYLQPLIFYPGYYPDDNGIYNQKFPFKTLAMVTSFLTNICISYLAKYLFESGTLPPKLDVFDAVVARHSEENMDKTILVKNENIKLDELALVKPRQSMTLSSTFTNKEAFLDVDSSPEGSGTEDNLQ

[3] = biological target: T2, Ubiquitin-conjugating enzyme E2 N (Homo sapiens, UniProt P61088); assay type: functional
T2 sequence (P61088 whole entry): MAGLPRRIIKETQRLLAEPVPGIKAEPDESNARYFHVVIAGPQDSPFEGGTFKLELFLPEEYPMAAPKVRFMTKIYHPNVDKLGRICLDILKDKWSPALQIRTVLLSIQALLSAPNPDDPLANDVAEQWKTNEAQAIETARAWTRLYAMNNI

[4] = biological target: T2, Ubiquitin-conjugating enzyme E2 N; assay type: functional; remark: listed apart in the source
[5] = biological target: T3, Bcl-2-related protein A1 (Mus musculus, UniProt Q07440); assay type: functional;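 also: confirmatory dose–response counterscreen on Bfl-1, used to check hits from a UBC13 polyubiquitin inhibitor campaign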
T3 sequence (Q07440 whole entry): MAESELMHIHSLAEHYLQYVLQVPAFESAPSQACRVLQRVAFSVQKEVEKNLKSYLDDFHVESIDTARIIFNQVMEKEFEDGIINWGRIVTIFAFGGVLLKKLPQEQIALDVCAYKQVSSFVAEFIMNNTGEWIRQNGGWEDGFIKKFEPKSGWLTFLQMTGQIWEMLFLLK

[6] = A549 cell cytotoxicity, dose response, cytotoxicity control, plate reader, cherry-pick, antagonist series (AID 743412); assay type: functional, cell-based
[7] = MC4R antagonists, dose response, counter-screen for LGR2 antagonist project, cell-based, plate reader, cherry pick (AID 743444); assay type: functional;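 also: transfected HEK 293 cells stimulated with alpha-MSH peptide; potency of inhibitors of the alpha-MSH evoked signal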
[8] = THP-1 cell cytotoxicity, dose response, cytotoxicity control for Vif-APOBEC3G degradation inhibitor project, THP-1 cells (AID 1117359); assay type: functional; conditions: Human immunodeficiency virus 1, THP-1
[9] = biological target: T4, RNA-binding protein pos-1 (Caenorhabditis elegans, UniProt G5EF15); assay: inhibitors of POS-1/mex-3 RNA binding, dose response, biochemical, fluorescence polarization (AID 1964);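 also: purified POS-1 fused to maltose binding protein made in E. coli; potency of compounds blocking POS-1 binding to fluorescent RNA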
T4 sequence (G5EF15 whole entry): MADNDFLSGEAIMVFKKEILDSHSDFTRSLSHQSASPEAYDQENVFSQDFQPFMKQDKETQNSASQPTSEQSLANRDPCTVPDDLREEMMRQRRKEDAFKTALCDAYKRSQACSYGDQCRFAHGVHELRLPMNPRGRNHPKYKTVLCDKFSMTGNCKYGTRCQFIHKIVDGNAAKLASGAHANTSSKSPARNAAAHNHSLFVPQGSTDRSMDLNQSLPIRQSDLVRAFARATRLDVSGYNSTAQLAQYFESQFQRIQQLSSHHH

[10] = biological target: T5, Carboxy-terminal domain RNA polymerase II polypeptide A small phosphatase 1 (Homo sapiens, UniProt Q9GZU7); assay: inhibitors of CTDSP1, concentration-response testing, biochemical assay, absorbance-based, actives from ultra-high-throughput screening (AID 540297); assay type: functional
T5 sequence (Q9GZU7 whole entry): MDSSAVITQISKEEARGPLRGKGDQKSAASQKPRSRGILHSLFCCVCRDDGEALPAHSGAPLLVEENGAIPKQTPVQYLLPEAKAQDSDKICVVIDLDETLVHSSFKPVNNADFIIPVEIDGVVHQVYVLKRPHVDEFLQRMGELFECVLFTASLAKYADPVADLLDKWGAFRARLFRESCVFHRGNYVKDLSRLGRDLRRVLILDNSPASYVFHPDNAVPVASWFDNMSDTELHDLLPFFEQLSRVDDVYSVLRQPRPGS

[11] = biological target: T6, Zinc finger protein mex-5 (Caenorhabditis elegans, UniProt Q9XUB2); assay: MEX-5/TCR-2 RNA interaction inhibitors, dose response, biochemical, C. elegans, fluorescence polarization (AID 1960)
T6 sequence (Q9XUB2 whole entry): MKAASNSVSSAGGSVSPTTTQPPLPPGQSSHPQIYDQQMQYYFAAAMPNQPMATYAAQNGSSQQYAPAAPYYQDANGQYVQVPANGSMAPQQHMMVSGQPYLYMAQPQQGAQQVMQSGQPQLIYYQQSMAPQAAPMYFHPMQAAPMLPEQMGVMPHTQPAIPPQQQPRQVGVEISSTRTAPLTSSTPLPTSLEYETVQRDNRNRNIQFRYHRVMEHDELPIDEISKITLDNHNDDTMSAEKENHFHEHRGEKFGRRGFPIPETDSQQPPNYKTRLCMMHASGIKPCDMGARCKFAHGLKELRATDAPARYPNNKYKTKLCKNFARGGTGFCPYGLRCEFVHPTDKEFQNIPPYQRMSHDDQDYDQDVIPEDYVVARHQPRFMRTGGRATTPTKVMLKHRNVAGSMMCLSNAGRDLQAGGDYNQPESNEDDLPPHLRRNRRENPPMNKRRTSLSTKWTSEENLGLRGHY

[12] = biological target: T7, Rac GTPase-activating protein 1 (Homo sapiens, UniProt Q9H0H5); assay: MgcRacGAP GTPase-activating activity inhibitors, confirmation, biochemical, ADP Hunter fluorescence, primary and confirmatory (AID 624330); assay type: functional
T7 sequence (Q9H0H5 whole entry): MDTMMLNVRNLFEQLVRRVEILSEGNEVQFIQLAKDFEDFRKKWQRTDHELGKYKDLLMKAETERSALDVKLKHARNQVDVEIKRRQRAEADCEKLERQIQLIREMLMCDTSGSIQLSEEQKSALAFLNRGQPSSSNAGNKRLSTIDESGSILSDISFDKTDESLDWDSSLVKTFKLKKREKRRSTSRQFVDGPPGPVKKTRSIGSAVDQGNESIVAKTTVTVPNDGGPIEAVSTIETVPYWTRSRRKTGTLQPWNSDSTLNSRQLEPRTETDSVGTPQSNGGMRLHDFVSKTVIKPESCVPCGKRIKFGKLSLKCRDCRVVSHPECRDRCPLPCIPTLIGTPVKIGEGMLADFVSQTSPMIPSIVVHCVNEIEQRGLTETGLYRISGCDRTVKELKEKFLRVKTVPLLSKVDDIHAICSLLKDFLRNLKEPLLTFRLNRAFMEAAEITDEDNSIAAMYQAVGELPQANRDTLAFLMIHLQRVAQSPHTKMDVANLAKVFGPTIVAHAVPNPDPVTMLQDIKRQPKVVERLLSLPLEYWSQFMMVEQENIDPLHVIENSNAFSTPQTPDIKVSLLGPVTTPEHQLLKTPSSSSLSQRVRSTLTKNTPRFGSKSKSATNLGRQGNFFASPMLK

[13] = tested on: Escherichia coli; assay: microbe, parasite or virus in culture
[14] = biological target: T8, Apoptotic protease-activating factor 1 (Homo sapiens, UniProt O14727); assay type: functional
T8 sequence (O14727 whole entry): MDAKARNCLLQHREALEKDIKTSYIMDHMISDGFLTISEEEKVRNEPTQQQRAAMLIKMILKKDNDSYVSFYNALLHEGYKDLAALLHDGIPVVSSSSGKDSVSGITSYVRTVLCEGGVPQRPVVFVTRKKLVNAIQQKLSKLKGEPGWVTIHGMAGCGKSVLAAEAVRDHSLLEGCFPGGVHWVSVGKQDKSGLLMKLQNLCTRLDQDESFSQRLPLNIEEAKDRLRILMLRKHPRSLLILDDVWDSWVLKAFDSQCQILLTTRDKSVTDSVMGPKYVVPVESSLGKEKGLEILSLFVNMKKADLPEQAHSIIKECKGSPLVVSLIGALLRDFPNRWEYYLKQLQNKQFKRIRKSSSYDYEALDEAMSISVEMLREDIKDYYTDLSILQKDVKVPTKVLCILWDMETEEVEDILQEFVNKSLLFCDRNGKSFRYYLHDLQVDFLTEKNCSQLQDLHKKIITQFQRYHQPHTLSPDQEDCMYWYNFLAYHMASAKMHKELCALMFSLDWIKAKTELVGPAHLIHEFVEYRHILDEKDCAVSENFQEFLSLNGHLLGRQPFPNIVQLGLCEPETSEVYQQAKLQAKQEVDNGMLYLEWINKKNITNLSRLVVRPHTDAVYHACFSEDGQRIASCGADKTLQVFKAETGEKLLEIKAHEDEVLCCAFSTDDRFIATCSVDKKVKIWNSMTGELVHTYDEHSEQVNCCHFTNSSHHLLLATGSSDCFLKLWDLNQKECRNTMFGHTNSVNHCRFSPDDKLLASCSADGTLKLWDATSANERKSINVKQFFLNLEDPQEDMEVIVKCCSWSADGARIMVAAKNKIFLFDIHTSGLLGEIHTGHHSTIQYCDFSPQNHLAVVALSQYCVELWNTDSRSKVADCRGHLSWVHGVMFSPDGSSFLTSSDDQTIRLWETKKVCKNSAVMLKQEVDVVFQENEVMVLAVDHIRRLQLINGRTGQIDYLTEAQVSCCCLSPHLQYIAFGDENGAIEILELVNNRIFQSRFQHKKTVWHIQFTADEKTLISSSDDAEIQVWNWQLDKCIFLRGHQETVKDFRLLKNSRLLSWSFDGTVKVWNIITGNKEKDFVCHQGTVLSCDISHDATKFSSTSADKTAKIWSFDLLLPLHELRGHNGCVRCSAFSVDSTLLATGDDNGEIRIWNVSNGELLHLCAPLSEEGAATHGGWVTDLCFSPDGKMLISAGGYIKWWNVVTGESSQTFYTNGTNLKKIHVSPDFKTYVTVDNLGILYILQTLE

[15] = biological target: Estrogen receptor beta (Homo sapiens, UniProt Q92731); assay: ERβ–SRC-3 coactivator interaction inhibitors, confirmation, orthogonal assay, biochemical, ELISA, streptavidin-HRP readout (AID 1060)
[16] = biological target: Protein-tyrosine kinase 2-beta (Homo sapiens, UniProt Q14289);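 also: potency of inhibitors of PYK2 kinase phosphorylation of poly-GT substrate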
Sequence of Protein-tyrosine kinase 2-beta (Q14289 whole entry): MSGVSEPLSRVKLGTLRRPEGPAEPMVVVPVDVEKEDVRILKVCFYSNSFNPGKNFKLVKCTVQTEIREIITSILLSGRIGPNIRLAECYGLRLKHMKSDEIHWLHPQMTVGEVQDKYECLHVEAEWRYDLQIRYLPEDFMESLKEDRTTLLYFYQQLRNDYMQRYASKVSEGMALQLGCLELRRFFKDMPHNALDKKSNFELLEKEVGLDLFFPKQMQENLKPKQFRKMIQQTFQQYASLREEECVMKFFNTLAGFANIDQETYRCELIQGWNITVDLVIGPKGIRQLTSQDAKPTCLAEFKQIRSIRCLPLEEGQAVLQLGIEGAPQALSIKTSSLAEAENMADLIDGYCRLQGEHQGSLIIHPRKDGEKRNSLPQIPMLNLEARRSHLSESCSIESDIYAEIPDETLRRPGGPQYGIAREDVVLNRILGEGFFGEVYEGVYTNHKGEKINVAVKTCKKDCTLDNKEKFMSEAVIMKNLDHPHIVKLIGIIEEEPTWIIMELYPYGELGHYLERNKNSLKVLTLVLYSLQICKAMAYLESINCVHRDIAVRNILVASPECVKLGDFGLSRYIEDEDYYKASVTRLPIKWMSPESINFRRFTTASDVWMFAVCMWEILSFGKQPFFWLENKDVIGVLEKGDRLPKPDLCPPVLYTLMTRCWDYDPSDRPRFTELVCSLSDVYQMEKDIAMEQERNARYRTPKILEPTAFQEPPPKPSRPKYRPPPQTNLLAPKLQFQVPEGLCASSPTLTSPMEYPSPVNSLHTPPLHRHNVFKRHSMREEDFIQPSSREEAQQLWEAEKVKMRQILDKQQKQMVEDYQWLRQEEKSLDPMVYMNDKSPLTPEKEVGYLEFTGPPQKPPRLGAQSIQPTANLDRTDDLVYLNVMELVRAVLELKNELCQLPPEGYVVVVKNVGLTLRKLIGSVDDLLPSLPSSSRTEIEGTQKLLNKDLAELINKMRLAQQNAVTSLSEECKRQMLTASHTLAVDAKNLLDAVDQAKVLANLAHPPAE

Sequence of Estrogen receptor beta (Q92731 whole entry): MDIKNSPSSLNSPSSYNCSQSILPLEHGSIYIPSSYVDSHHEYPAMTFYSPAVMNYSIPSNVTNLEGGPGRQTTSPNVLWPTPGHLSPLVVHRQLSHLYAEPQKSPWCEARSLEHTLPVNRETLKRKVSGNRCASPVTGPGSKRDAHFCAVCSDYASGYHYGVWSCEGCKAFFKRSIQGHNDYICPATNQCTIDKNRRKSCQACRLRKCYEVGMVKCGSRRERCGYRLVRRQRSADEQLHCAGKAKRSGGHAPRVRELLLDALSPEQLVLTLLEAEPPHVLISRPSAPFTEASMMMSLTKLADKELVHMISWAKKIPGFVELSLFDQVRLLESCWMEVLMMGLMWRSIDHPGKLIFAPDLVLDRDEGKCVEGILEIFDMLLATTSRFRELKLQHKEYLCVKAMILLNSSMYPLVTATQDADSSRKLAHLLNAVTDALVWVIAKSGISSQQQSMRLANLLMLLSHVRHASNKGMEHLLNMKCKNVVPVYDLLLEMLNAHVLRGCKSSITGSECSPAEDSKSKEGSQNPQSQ
Sequence of Voltage-gated N-type calcium channel alpha-1B subunit/Amyloid beta A4 precursor protein-binding family A member 1 (Q00975 whole entry): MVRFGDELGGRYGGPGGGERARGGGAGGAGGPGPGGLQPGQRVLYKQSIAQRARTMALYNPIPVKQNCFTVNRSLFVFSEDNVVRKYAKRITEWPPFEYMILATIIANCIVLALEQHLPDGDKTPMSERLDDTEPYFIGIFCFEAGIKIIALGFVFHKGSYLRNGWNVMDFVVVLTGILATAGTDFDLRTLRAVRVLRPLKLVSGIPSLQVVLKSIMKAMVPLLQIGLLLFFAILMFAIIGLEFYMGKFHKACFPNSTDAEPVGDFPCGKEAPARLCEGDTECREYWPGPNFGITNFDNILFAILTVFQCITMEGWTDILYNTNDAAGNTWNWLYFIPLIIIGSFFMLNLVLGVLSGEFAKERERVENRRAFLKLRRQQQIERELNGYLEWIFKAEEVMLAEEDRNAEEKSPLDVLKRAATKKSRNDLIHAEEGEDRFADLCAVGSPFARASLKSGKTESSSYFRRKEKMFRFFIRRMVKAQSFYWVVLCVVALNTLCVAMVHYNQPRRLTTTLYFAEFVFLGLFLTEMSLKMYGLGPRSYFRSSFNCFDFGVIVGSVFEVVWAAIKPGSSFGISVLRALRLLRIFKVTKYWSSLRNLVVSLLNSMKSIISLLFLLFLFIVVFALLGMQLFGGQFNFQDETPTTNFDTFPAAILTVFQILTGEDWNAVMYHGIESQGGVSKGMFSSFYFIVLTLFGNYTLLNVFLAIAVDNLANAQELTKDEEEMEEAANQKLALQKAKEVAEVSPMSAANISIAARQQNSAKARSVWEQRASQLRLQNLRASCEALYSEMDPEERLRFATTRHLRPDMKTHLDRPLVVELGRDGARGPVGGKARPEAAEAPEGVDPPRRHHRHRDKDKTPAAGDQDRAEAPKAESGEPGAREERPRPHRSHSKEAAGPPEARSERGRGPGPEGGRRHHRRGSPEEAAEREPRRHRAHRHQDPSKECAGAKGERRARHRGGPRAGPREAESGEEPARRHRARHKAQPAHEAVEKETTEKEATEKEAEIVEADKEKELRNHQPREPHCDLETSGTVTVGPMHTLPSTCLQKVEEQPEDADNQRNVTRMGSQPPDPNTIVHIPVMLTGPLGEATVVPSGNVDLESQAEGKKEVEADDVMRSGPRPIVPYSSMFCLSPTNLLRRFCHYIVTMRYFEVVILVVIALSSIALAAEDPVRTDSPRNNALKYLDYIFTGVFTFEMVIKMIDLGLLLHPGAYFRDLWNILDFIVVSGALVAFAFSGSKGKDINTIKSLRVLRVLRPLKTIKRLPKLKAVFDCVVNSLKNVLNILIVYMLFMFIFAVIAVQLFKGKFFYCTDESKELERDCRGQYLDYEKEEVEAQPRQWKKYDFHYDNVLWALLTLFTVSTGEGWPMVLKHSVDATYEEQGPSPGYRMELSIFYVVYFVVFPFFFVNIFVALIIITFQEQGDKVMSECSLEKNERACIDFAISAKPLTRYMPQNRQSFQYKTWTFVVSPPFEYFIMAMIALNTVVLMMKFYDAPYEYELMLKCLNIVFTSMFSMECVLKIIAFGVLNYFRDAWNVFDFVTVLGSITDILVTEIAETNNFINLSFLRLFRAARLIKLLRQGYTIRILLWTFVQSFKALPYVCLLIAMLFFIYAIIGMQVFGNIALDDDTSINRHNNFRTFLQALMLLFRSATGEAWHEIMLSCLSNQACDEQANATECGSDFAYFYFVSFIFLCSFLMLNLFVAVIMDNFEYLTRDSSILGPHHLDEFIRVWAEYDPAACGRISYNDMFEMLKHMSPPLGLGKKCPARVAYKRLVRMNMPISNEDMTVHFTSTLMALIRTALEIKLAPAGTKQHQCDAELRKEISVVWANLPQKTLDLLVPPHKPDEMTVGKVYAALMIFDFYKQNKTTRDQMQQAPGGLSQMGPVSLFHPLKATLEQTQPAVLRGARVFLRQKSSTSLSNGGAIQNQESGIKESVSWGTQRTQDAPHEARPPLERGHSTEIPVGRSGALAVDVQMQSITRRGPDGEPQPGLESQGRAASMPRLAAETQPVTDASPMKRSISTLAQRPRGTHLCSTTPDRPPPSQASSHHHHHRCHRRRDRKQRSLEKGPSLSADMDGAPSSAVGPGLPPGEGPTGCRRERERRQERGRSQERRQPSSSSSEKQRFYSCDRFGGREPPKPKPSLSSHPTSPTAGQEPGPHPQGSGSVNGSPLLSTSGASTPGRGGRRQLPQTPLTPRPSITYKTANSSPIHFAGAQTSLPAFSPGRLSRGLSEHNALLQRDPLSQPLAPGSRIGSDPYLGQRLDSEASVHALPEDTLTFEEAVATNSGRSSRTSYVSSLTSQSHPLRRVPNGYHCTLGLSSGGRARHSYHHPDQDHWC
Sequence of Voltage-gated N-type calcium channel alpha-1B subunit/Amyloid beta A4 precursor protein-binding family A member 1 (Q02410 whole entry): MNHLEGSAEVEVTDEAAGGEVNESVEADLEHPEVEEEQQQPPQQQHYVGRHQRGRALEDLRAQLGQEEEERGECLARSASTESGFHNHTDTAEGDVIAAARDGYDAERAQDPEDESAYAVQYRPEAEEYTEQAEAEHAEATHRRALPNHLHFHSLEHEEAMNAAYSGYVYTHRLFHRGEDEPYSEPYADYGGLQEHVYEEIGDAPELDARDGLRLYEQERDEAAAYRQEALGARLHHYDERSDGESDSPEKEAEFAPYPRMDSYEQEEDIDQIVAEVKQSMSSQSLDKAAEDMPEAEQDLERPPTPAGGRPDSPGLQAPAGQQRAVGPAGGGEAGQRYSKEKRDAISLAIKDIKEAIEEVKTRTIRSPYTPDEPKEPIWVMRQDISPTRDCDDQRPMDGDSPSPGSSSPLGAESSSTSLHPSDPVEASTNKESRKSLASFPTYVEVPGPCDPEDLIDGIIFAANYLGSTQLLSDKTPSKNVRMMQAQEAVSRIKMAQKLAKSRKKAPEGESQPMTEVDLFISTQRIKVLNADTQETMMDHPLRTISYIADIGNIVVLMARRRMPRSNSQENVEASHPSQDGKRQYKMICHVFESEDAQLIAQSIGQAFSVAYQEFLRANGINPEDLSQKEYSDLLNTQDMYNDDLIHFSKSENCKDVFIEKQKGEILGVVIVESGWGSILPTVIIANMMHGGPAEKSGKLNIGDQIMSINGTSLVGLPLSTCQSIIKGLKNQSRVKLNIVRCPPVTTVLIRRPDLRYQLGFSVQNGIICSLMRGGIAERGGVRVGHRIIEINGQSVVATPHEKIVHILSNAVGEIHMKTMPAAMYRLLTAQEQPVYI

Question: For `CCOc1ccc(NC(=O)Cn2cncc2-c2ccc([N+](=O)[O-])cc2)cc1`, which IC50 [1] is on record?
Answer: 5.93 µM (active)

Question: With `O=C(N/N=C/c1ccsc1)c1c[nH]c2ccccc12` as the molecule, how does the IC50 [2] read?
Answer: 3.8 µM (active)

Question: With `C#CCOCCOCCOCCNc1nc(N2CCN(C(=O)[C@H](CCCCN)n3cc(CN)nn3)CC2)nc(N2CCN(C(=O)[C@H](CCCN=C(N)N)n3cc(C(N)[C@H](C)CC)nn3)CC2)n1` (stereo partly specified) as the molecule, how does the IC50 [3] read?
Answer: 7.94 µM (active)

Question: And the IC50 [4]?
Answer: 12 µM (active)

Question: And the IC50 [5]?
Answer: > 20 µM (inactive)

Question: Which IC50 [3] does the source give for `CC(C)c1ccc(NC(=O)C[n+]2ccn(C3=C([O-])c4ccccc4C3=O)c2)cc1` here?
Answer: 17.8 µM (active)

Question: And the IC50 [4]?
Answer: 11.8 µM (active)

Question: And the IC50 [5]?
Answer: > 20 µM (inactive)

Question: For `COc1ccccc1NC(=O)c1c(/N=C/c2ccccc2O)cnn1C`, which IC50 [3] is on record?
Answer: 10.4 µM (active)

Question: What about the IC50 [4] of the same molecule?
Answer: 10.5 µM (active)

Question: And the IC50 [5]?
Answer: > 20 µM (inactive)

Question: With `COc1ccc(S(=O)(=O)Nc2ccc3c(c2)C(=O)N([C@@H](C)CO)C[C@@H](C)[C@H](CN(C)C(=O)Nc2cccc4ccccc24)OCCCC[C@H](C)O3)cc1` as the molecule, how does the AC50 [6] read?
Answer: > 52 µM (inactive)

Question: What about the AC50 [7] of the same molecule?
Answer: 2.05 µM (active)

Question: Which IC50 [2] does the source give for `CC1CCN(S(=O)(=O)c2ccc3c(c2)N(CC(=O)NCCCN2CCCCC2C)C(=O)CS3)CC1` (stereo unspecified) here?
Answer: 13 µM (active)

Question: Which CC50 [8] does the source give for `Clc1ccc(CSCCc2ccncc2)cc1` here?
Answer: > 40 µM (active)

Question: For `Cn1cccc1/C=C1\C(=O)NC(=O)N(Cc2ccco2)C1=O`, which CC50 [8] is on record?
Answer: > 40 µM (active)

Question: And the EC50 [9]?
Answer: > 300 µM (not active)

Question: What about the IC50 [10] of the same molecule?
Answer: 4.88 µM (active)

Question: And the EC50 [11]?
Answer: 57.7 µM (active)

Question: What about the IC50 [12] of the same molecule?
Answer: 116 µM (active)

Question: With `COc1ccc(CCN=C(N)NS(=O)(=O)c2cccs2)cc1` as the molecule, how does the AC50 [13] read?
Answer: 112 µM (active)

Question: Which results are given for `CCCN(CC(=O)Nc1ccccc1OC)C(=O)CSc1ccc(Br)cc1C`?
Answer: CC50 [8]: > 40 µM (active); IC50 [14]: 48.4 µM (active)

Question: What does the source list for `Cc1c(NC(=O)CCCCCN2C(=O)c3ccccc3C2=O)c(=O)n(-c2ccccc2)n1C`?
Answer: IC50 [3]: 0.709 µM (active); IC50 [4]: 1.23 µM (active); IC50 [5]: > 20 µM (inactive)

Question: Which AC50 [13] does the source give for `Cc1ccc(NC(=O)COC(=O)CCC(=O)c2cccs2)c(C)c1` here?
Answer: > 150 µM (inactive)

Question: With `Cc1ccc(-c2nnc(OCC3CCCO3)c3ccccc23)cc1` (stereo unspecified) as the molecule, how does the IC50 [2] read?
Answer: 14.5 µM (active)

Question: For `N#Cc1c(NC(=O)CN2CCCCC2)sc2c1CCC2`, which IC50 [15] is on record?
Answer: 0.0561 µM (not active)

Question: Which AC50 [13] does the source give for `O=C(C1CC(=O)N(C2CCCC2)C1)N1CCN(c2ccc(F)cc2)CC1` (stereo unspecified) here?
Answer: 31.8 µM (active)

Question: For `O=C(OCC(=O)N1CCN(C(=O)c2ccco2)CC1)c1cc(-c2ccc(Cl)c(Cl)c2Cl)nc2ccccc12`, which IC50 [16] is on record?
Answer: 5.94 µM (active)
